Assay results as given in US20220288046A1, “COMBINATION PRODUCT CONTAINING LIMONOID COMPOUND AND THIAZOLIDINEDIONE COMPOUND” (ZHEJIANG YANGSHENGTANG INSTITUTE OF NATURAL MEDICATION CO., …, priority 2019, published 2022).

Legend:
Assay type in all cases: in vivo
db/db mice [1] = assay: Serum leptin (Elisa) in mouse type II diabetes model (db/db mice), limonoid/pioglitazone; details: single agent 0.04 g/kg per day gavage, two weeks, mean ± SD
Description: (§1) Effects of limonoid compound, pioglitazone or combination thereof on blood glucose and leptin in mouse type II diabetes model In the present example, db/db mice (line name BKS.Cg-Dock7m^+/+Lepr^db/Nju) were used to perform hypoglycemic efficacy evaluation test of animals (blood glucose level and leptin). The limonoid compound was selected from obacunone, isoobacunoic acid and obacunone glycoside, and pioglitazone single administration group, obacunone single administration group, isoobacunoic acid single administration group, obacunone glycoside single administered group, and respective combination thereof with pioglitazone administration groups were set. Conditions for experimental feeding: as type II diabetes model mice, 6-week-old SPF-grade db/db mice were purchased from the Nanjing Model Biology Institute, and subjected to experimental feeding after 7 days of preliminary feeding. […] The experimental feed was mouse growth-stable feed (GB […]), and the daily feeding and management of the animals were under the responsibility of the animal security department, which provided the animals with sufficient diet and fresh drinking water daily. […] The data were expressed as mean and standard deviation. The data before and after were analyzed by t-test, and P <0.05 was considered statistically significant.

STZ mice [2] = assay: Blood glucose in mouse type II diabetes model with pancreatic islet damage and obesity (STZ + high-fat diet ICR mice), limonoid/pioglitazone; details: single agent 0.5 g/kg per day gavage, two weeks, 1 h after last administration, mean ± SD
Description: Effects of limonoid compound, pioglitazone or combination thereof on blood glucose in mouse type II diabetes model with pancreatic islet damage and obesity In this example, a mouse model of type II diabetes with pancreatic islet damage and obesity was established by multiple modeling ICR mice with a small dose of streptozotocin (STZ), following with continuous high-fat diets (referring to literature: […] Conditions of experimental feeding: […] The experimental feed was mouse growth-stable feed (GB […]), and the daily feeding and management of the animals were under the responsibility of the animal security department, which provided the animals with sufficient diet and fresh drinking water daily. Experimental grouping: 15 male mice were randomly selected as the normal control group, and the remaining mice were subjected to a high-fat diet (high-fat diet formula: cholesterol 1%, egg yolk powder 10%, lard oil 10%, and basic feed 79%, for establishing an obesity mouse model) for consecutive 4 weeks and intraperitoneal injection of STZ at a dose of 35mg/kg for three consecutive days. […] SPSS 16.0 software was used for statistical analysis. The data were expressed as mean and standard deviation. The data before and after were analyzed by t-test, and P <0.05 was considered statistically significant.

db/db mice [3] = assay: Blood glucose in mouse type II diabetes model (db/db mice), limonoid/pioglitazone; details: single agent 0.04 g/kg per day gavage, two weeks, 1 h after last administration, mean ± SD
Description: as §1

STZ mice [4] = assay: Blood glucose in mouse pancreatic islet β-cell injury model (STZ ICR mice), limonoid/pioglitazone; details: single agent 0.1 g/kg per day gavage, two weeks, 1 h after last administration, mean ± SD
Description: Effects of limonoid compound, pioglitazone or combination thereof on blood glucose in mouse pancreatic islet β-cell injury model In this example, a mouse pancreatic islet β-cell injury model was established by modeling ICR mice with streptozotocin (STZ) (Li Nan et al., Protective effect of pine pollen on kidney damage in diabetic nephropathy mice, Science and Technology Review, 2014, 32 (4⁄5): 95-99), and used to complete the evaluation of hypoglycemic effect in animals (this model could simulate pancreatic islet β-cell damage state of type I and type II diabetics). The limonoid compound was selected from the group consisting of […], and […] glycoside, and pioglitazone single administration group, […] single administration group, […] single administration group, […] glycoside singe administration group, and respective combination thereof with pioglitazone administration groups were set. Conditions of experimental feeding: […] The experimental feed was mouse growth-stable feed (GB […]), and the daily feeding and management of the animals were under the responsibility of the animal security department, which provided the animals with sufficient diet and fresh drinking water daily. […] The data were expressed as mean and standard deviation. The data before and after were analyzed by t-test, and P <0.05 was considered statistically significant.

db/db mice [5] = assay: Blood glucose in mouse type II diabetes model (db/db mice), limonoid/rosiglitazone; details: single agent 0.2 g/kg per day gavage, two weeks, 1 h after last administration, mean ± SD
Description: (§2) Effects of limonoid compound, rosiglitazone or combination thereof on blood glucose and insulin in mouse type II diabetes model
(§3) In the present embodiment, the limonoid compound was selected from nomilin, deacetylnomilin, nomilin acid, deacetylnomilin acid glycoside, and rosiglitazone single administration group, nomilin single administration group, deacetylnomilin single administration group, nomilin acid single administered group, deacetylnomilin acid glycoside single administration group, and respective combination thereof with rosiglitazone administration groups were set.
(§4) Conditions for experimental feeding: as type II diabetes model mice, 6-week-old SPF-grade db/db mice were purchased from the Nanjing Model Biology Institute, and subjected to experimental feeding after 7 days of preliminary feeding. […]
(§5) Two weeks later, the blood glucose values were measured by tail trimming method (Johnson's blood glucose meter) 1 h after the last administration, and serum insulin levels were measured with blood collected from orbital cavity by enzyme-linked immunosorbent assay (Elisa), and the average of each group was obtained. […] The data were expressed as mean and standard deviation.

STZ mice [6] = assay: Blood glucose in mouse pancreatic islet β-cell injury model (STZ ICR mice), limonoid/rosiglitazone; details: single agent 0.02 g/kg per day gavage, two weeks, 1 h after last administration, mean ± SD
Procedure: It should be noted that the conditions for raising the mice were as follows: the temperature was 23±1° C., the humidity was 55±10%, the lights were turned on between 7 am and 7 pm (the lights were turned off at other time), and the mice were allowed to freely take in water and feed. The experimental feed was mouse growth-stable feed (GB M2118), and the daily feeding and management of the animals were under the responsibility of the animal security department, which provided the animals with sufficient diet and fresh drinking water daily.
SPSS 16.0 software was used for statistical analysis. The data were expressed as mean and standard deviation.

db/db mice [7] = assay: Serum insulin (Elisa) in mouse type II diabetes model (db/db mice), limonoid/rosiglitazone; details: single agent 0.2 g/kg per day gavage, two weeks, mean ± SD
Description: as §2, §3, §4, §5

Compound	Leptin (db/db mice [1]) [pg/mL]	Blood glucose value (STZ mice [2]) [mmol/L]	Blood glucose value (db/db mice [3]) [mmol/L]	Blood glucose value (STZ mice [4]) [mmol/L]	Blood glucose value (db/db mice [5]) [mmol/L]	Blood glucose value (STZ mice [6]) [mmol/L]	Insulin (db/db mice [7]) [pg/mL]
CCc1ccc(CCOc2ccc(CC3SC(=O)NC3=O)cc2)nc1 (stereo not shown) [Pioglitazone, pioglitazone]	24.55 ± 5.14	9.9 ± 2.1	11.5 ± 3.0	12.8 ± 3.1	–	–	–
CN(CCOc1ccc(CC2SC(=O)NC2=O)cc1)c1ccccn1 (stereo not shown) [Rosiglitazone, rosiglitazone]	–	–	–	–	10.0 ± 2.5	17.9 ± 3.5	7.54 ± 1.21
